From patent US20210395256A1, “TYROSINE KINASE INHIBITORS, COMPOSITIONS AND METHODS THERE OF” (Betta Pharmaceuticals Co., Ltd., priority 2018, published 2021)

Key:
CYP3A4 = target: T1, CYP3A4 (Homo sapiens, UniProt P08684); test: Cytochrome P450 inhibition, CYP3A4; format: in vitro ADME; conditions: 10 μM compound, human liver microsomes; for inhibition at 5 min, 10 µM: probe Midazolam (5 μM), substrate Midazolam, read-out: Inhibition percentage CYP3A4 (Midazolam); for inhibition at 10 min, 10 µM: probe Testosterone (50 μM), substrate Testosterone, read-out: Inhibition percentage CYP3A4 (Testosterone)
T1 construct: from tissue; host or cells: human liver microsomes
Experimental: (§1) Example 205 Cytochrome P450 Measurements
(§2) The cytochrome P450 was measured as the following procedure:
(§3) 1) A master solution containing phosphate buffer, ultra-pure H2O, MgCl2 solution and human liver microsomes was made according to Table 17, and then 1 μL of 2 mM of compound solution or 1 μL of DMSO (as without inhibitor control) was added to the above master solution. The final concentration of test compounds or control compounds was 10 μM.
6) For CYP3A4 inhibition, 1 μL of specific drug substrate (Midazolam: 1 mM) was added at the final concentration of 5 μM to the above solution.
7) For CYP3A4 inhibition, 1 μL of specific drug substrate (Testosterone: 10 mM) was added at the final concentration of 50 μM to the above solution.
(§4) 8) The mixture was pre-warmed at 37° C. for 5 min. The reaction was started by the addition of 20 μL of 10 mM NADPH solution at the final concentration of 1 mM and carried out at 37° C.
(§5) 9) The reaction was stopped by addition of 300 μL of cold quench solution (methanol containing internal standards (1S, 500 nM Labetalol, 100 nM Alprazolam and 2 μM Ketoprofen) at the designated time points (Phenacetin: 20 min; Paclitaxel: 10 min; Tolbutamide: 20 min; (s)-Mephenytoin: 20 min; Midazolam: 5 min; Testosterone: 10 min). Samples were vortexed for 5 minutes and centrifuged at 3220 g for 40 minutes at 4° C. And then 100 μL of the supernatant was transferred to a new 96-well plate with 100 μL or 200 μL water (depends on the LC-MS signal response and peak shape) for LC-MS/MS analysis.
(§6) All experiments were performed in duplicates.
(§7) Inhibition percentages for compounds against CYP1A2, CYP2C8, CYP2C9, CYP2C19, and […]

CYP2C8 = target: T2, CYP2C8 (Homo sapiens, UniProt P10632); test: Cytochrome P450 inhibition, CYP2C8; format: in vitro ADME; conditions: probe Paclitaxel (5 μM); 10 μM compound, human liver microsomes, substrate Paclitaxel; read-out: Inhibition percentage CYP2C8 (Paclitaxel)
T2 construct: from tissue; host or cells: human liver microsomes
T2 sequence (P10632 1-490): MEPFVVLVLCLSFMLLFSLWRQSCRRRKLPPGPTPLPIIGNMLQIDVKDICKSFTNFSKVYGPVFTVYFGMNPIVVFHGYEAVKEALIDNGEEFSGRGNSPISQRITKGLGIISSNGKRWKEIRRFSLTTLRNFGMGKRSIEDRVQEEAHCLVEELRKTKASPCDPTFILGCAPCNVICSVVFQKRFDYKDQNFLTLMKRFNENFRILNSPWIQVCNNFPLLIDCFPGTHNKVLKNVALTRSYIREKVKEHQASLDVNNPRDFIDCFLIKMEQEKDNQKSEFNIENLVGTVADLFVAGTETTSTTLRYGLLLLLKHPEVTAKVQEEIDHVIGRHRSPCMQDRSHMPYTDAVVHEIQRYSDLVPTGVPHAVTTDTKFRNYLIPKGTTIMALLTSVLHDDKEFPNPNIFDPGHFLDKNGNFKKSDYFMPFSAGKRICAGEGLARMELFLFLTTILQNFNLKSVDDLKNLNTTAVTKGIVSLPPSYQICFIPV
Experimental: as §1, §2, §3
3) For CYP2C8 inhibition, 1 μL of specific drug substrate (Paclitaxel: 1 mM) was added at the final concentration of 5 μM to the above solution.
as §4, §5, §6, §7

CYP2C9 = target: T3, CYP2C9 (Homo sapiens, UniProt P11712); test: Cytochrome P450 inhibition, CYP2C9; format: in vitro ADME; conditions: probe Tolbutamide (200 μM); 10 μM compound, human liver microsomes, substrate Tolbutamide; read-out: Inhibition percentage CYP2C9 (Tolbutamide)
T3 construct: from tissue; host or cells: human liver microsomes
Experimental: as §1, §2, §3
4) For CYP2C9 inhibition, 1 μL of specific drug substrate (Tolbutamide: 40 mM) was added at the final concentration of 200 μM to the above solution.
as §4, §5, §6, §7

Ba/F3-ETV6-NTRK3 = target: T4, Ba/F3-ETV6-NTRK3 (Homo sapiens, UniProt Q16288); test: Ba/F3-ETV6-NTRK3 cells proliferation assay; format: cell-based; conditions: 72 h, CellTiter Glo
T4 construct: Ba/F3 cells with TPM3-NTRK1 or ETV6-NTRK3 fusion mutation gene stably overexpressed named Ba/F3-TPM3-NTRK1 and Ba/F3-ETV6-NTRK3; fused on or other part: P41212 (Transcription factor ETV6)
Experimental: Example 202 Ba/F3-TPM3-NTRK1 and Ba/F3-ETV6-NTRK3 cells proliferation assay
Cell line: Ba/F3 cells with TPM3-NTRK1 or ETV6-NTRK3 fusion mutation gene stably overexpressed named Ba/F3-TPM3-NTRK1 and Ba/F3-ETV6-NTRK3.
RPMI 1640 and 10% FBS and 1% PS and 2 ug/mL puromycin.
b) Collect cell to a 15 mL centrifuged tube, centrifuge at 1000 rpm for 5 min. Discard the supernatant, count, and make the cell density at 1.49×10^4 cells/mL, then place it in a 37° C., 5% CO2 incubator.
a) The test compound (20 mM stock solution) was diluted to 60 μM with 100% DMSO as starting concentration then 3-fold serial diluted with “9+0” concentrations. in a 96-well dilution plate (Thermo, Cat. No. 249944);
b) The above compound solution was diluted 1:20 times with culture medium to prepare a 10 fold working solution;
a) Take cells in log phase growth, centrifuge at 1000 rpm for 5 min, then resuspend the cells with culture medium, then count cells;
b) Cells were seeded to 96-well cell culture plate with density at 2000 cells/well;
a) Compounds prepared at step 2 were added to cell plate with 15 μL per well, the final concentrations were 300, 100, 33.33, 11.11, 3.70, 1.23, 0.41, 0.14, 0.05 and 0 nM, and the final concentration of DMSO was 0.5%. The blank control well was a culture medium (0.5% DMSO);
c) The cells were incubated for an additional 72 h in the incubator.
a) Remove the 96-well cell culture plate and add 50 μl of CTG reagent (CellTiter Glo kit, promega, Cat #G7573).
b) Plate was shaked for 2 min and then let it cool for 30 min at room temperature.
c) The Luminescence signal value was read using a PerkinElmer reader.
Experimental Data Analysis
Data were analyzed using GraphPad Prism 6.0 software to obtain a fitted curve of compound activity.
Fit the Compound IC50 from non-linear regression equation:
Y=Bottom+(Top-Bottom)/(1+10^((Log IC50-X)×HillSlope));
X: The log of the concentration of the compound; Y: Luminescence value.

NTRK1-G595R = NTRK1-G595R (Homo sapiens, UniProt P04629, G595R); test: NTRK1-G595R cell proliferation assay (Table 13); format: cell-based
Chain of NTRK1-G595R (P04629 33-796 G595R): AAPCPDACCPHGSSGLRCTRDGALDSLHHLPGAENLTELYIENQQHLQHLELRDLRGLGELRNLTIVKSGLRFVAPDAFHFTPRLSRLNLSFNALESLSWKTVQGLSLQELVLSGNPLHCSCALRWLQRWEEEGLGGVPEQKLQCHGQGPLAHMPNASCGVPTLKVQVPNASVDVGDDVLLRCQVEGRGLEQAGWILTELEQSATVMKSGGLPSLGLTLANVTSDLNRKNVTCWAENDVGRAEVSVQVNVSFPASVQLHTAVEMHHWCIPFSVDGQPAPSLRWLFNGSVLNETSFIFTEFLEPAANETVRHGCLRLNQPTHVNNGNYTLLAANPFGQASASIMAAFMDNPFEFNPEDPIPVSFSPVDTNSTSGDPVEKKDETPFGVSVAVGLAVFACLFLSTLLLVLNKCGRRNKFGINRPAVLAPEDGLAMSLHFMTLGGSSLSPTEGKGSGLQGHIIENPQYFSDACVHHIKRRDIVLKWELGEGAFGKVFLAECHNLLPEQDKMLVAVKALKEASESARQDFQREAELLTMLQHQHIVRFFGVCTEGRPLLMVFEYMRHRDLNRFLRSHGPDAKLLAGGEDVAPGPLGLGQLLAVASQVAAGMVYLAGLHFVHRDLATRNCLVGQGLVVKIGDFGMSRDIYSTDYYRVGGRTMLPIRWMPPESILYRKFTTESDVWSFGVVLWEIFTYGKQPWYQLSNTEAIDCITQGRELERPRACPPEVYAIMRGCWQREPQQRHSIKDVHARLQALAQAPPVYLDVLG

T3 sequence (P11712 whole entry): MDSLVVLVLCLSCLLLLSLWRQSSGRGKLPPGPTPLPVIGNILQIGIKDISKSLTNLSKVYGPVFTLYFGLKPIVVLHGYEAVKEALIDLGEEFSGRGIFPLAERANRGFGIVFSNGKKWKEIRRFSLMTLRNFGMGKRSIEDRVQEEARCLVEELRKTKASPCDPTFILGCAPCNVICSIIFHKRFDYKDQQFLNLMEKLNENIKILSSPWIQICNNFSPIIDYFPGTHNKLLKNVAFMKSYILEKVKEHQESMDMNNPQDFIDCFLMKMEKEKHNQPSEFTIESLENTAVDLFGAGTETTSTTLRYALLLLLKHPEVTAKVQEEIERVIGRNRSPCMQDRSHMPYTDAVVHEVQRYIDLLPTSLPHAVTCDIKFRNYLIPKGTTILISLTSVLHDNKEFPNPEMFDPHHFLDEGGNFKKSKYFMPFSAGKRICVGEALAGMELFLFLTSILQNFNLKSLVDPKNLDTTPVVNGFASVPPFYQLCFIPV
T1 sequence (P08684 whole entry): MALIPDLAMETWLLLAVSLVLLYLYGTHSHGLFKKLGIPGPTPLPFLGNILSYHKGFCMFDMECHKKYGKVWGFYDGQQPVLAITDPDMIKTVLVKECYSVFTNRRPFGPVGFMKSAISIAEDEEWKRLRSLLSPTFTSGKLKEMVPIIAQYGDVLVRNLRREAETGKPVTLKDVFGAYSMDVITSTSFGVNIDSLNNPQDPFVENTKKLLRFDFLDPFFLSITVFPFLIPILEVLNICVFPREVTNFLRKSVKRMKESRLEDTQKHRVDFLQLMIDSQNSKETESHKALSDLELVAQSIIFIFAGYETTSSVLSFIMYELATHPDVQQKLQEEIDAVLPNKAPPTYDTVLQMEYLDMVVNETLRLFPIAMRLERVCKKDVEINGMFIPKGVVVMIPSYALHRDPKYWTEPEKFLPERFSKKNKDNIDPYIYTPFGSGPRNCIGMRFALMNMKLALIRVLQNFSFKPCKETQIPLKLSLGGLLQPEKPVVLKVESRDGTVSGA
T4 sequence (Q16288 whole entry, the tested form may be a part): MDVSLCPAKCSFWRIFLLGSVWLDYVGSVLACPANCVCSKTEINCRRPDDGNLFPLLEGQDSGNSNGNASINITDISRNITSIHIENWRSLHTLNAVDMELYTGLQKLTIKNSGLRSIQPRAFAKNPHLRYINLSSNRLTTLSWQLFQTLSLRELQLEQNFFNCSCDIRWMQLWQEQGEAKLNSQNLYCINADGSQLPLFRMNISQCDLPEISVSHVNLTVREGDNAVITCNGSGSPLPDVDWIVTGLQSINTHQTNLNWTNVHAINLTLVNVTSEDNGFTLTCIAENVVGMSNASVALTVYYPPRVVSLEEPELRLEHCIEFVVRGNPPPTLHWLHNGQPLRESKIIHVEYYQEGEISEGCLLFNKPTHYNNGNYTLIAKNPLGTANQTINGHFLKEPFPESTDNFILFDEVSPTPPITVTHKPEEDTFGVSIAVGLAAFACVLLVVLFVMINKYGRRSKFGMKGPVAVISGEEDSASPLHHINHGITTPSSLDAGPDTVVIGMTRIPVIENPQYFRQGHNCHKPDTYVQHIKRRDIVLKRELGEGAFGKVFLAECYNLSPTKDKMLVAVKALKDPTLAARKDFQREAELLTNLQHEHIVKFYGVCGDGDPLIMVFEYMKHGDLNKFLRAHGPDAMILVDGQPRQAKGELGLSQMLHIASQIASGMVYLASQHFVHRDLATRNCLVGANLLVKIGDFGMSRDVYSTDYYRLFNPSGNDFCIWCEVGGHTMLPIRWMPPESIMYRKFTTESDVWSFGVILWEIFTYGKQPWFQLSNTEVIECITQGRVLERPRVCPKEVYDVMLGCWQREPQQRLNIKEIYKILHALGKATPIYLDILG

| inhibition at 5 min, 10 µM (CYP3A4) [%] | inhibition at 10 min, 10 µM (CYP3A4) [%] | inhibition at 10 min, 10 µM (CYP2C8) [%] | inhibition at 20 min, 10 µM (CYP2C9) [%] | IC50 (Ba/F3-ETV6-NTRK3) [nM] | IC50 (NTRK1-G595R) [nM] | SMILES |
| --- | --- | --- | --- | --- | --- | --- |
| 70.1 | 38.3 | 19.3 | 25.4 | – | – | Cc1nnc(-c2cnn3ccc(N4CCCC4c4cc(F)ccc4F)nc23)[nH]1 (centres unmarked) [Comparative compound A, 5-[2-(2,5-Difluorophenyl)pyrrolidin-1-yl]-3-(5-methyl-1H-1,2,4-triazol-3-yl)pyrazolo[1,5-a]pyrimidine, reference compound] |
| 20 | 22.8 | 18.2 | 5.96 | 2.78 | – | C[C@H](O)c1nnc(-c2cnn3ccc(N4CCC[C@@H]4c4cc(F)ccc4F)nc23)[nH]1 [Compound 4, (S)-1-(5-(5-((R)-2-(2,5-difluorophenyl)pyrrolidin-1-yl)pyrazolo[1,5-a]pyrimidin-3-yl)-4H-1,2,4-triazol-3-yl)ethan-1-ol] |
| – | – | – | – | 5.79 | – | C[C@H](N)c1nnc(-c2cnn3ccc(N4CCC[C@@H]4c4cc(F)ccc4F)nc23)[nH]1 [Compound 11, (S)-1-(5-(5-((R)-2-(2,5-difluorophenyl)pyrrolidin-1-yl)pyrazolo[1,5-a]pyrimidin-3-yl)-4H-1,2,4-triazol-3-yl)ethan-1-amine] |
| 22.4 | 29.5 | 32.8 | 50.4 | – | – | OC(c1nnc(-c2cnn3ccc(N4CCC[C@@H]4c4cc(F)ccc4F)nc23)[nH]1)C(F)(F)F (stereo partly drawn) [Compound 47, 1-(5-(5-((R)-2-(2,5-difluorophenyl)pyrrolidin-1-yl)pyrazolo[1,5-a]pyrimidin-3-yl)-4H-1,2,4-triazol-3-yl)-2,2,2-trifluoroethan-1-ol] |
| 6.97 | 5.7 | 1.37 | 22.7 | 5.68 | 107 | CC(C)(O)c1nnc(-c2cnn3ccc(N4CCC[C@@H]4c4cc(F)ccc4F)nc23)[nH]1 [Compound 7, (R)-2-(5-(5-(2-(2,5-difluorophenyl)pyrrolidin-1-yl)pyrazolo[1,5-a]pyrimidin-3-yl)-4H-1,2,4-triazol-3-yl)propan-2-ol] |
